Measurements: patent US20240408169A1 (priority 2023, published 2024)
*1 amine or outer side, *2 acyl side, *3 side chain or, on linkers, in order; H or OH if unused. Where a SMILES comes first, the peptide text is derived from it. Bridges are numbered along the chain shown (N, C = ends). [ ]: non-standard residue; d: D form. The star is where a group is joined. X146 = CC(C)C(=O)N1[C@@H]2CC[C@H]1C=C(c1ccc(Cl)cc1C[C@@H](C(=O)[*:2])N(C)[*:1])C2; X124 = CC(C)C(=O)N1[C@@H]2CC[C@H]1C=C(c1ccc(F)cc1C[C@@H](C(=O)[*:2])N(C)[*:1])C2; X7 = CC(C)C(=O)N1[C@H]2CC[C@@H]1C=C(c1ccc(F)cc1C[C@@H](C(=O)[*:2])N(C)[*:1])C2; X42 = CN([C@@H](Cc1cc(Cl)ccc1-c1cnn(S(=O)(=O)C2CC2)c1)C(=O)[*:2])[*:1]; X120 = CN([C@@H](Cc1cc(Cl)ccc1-c1ccn(S(C)(=O)=O)c1)C(=O)[*:2])[*:1]; X141 = CN([C@@H](Cc1cc(Cl)ccc1C1=CCN(S(C)(=O)=O)C1)C(=O)[*:2])[*:1]; X130 = CN([C@@H](Cc1cc(F)ccc1-c1ccn(S(C)(=O)=O)c1)C(=O)[*:2])[*:1]; X137 = CN([C@@H](Cc1cc(F)ccc1-c1cnn(S(C)(=O)=O)c1)C(=O)[*:2])[*:1]; X82 = CN([C@@H](Cc1cc(Cl)ccc1-c1cnn(S(C)(=O)=O)c1)C(=O)[*:2])[*:1]; X171 = CC(=O)N1CC=C(c2ncc(Cl)cc2C[C@@H](C(=O)[*:2])N(C)[*:1])CC1; X187 = CC(=O)N1CC=C(c2ccc(Cl)cc2C[C@@H](C(=O)[*:2])N(C)[*:1])C1; X196 = CN([C@@H](Cc1cc(F)ccc1-c1cnn2ccncc12)C(=O)[*:2])[*:1]; NMehhhLys(Me) = CN([C@@H](CCCCCCCN(C)[*:3])C(=O)[*:2])[*:1]; X118 = Cc1cc(-c2ccc(Cl)cc2C[C@@H](C(=O)[*:2])N(C)[*:1])cnn1; NMe(hhhLys) = CN([C@@H](CCCCCCCN[*:3])C(=O)[*:2])[*:1]; Oxane2carbonyl(2R-CF3) = O=C([C@@]1(C(F)(F)F)CCCCO1)*; X152 = CN([C@@H](Cc1cc(Cl)ccc1OC1CC1)C(=O)[*:2])[*:1]; cBuCO(3,3-F2-1-CF3) = O=C(C1(C(F)(F)F)CC(F)(F)C1)*; Pro(trans-4-F) = O=C(O)[C@@H]1C[C@@H](F)CN1; Pivaloyl(3,3,3-F3) = CC(C)(C(=O)*)C(F)(F)F; Gly(cPr) = N[C@H](C(=O)O)C1CC1

Tests used:
[1] = biological target: T1, CyclinA2/CDK2 (Homo sapiens, UniProt P20248); experiment: Fluorescence Polarization (FP) competitive binding assay, Cyclin A2/Cdk2; details: 8 nM Cyclin A2/Cdk2, 2 nM FAM probe; average of 2-3 independent experiments; read-out: Cyclin A FP IC50;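 also: plates equilibrated two hours at room temperature before polarization reading, IC50 fitted from eight-concentration compound titration curves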
T1 construct: purchased CRELUX Protein Services

[2] = biological target: T2, CyclinB1/CDK1 (Homo sapiens, UniProt P14635); experiment: Fluorescence Polarization (FP) competitive binding assay, Cyclin B1/Cdk1; details: 10 nM Cyclin B1/Cdk1, 2 nM FAM probe; average of 2-3 independent experiments; read-out: Cyclin B FP IC50;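 also: fluorescence polarization read after equilibration at room temperature, with IC50 taken from serially diluted dose-response curves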
T2 construct: purchased Eurofins, discovery 14-450

[3] = biological target: T3, CyclinE1/CDK2 (Homo sapiens, UniProt P24864); experiment: Fluorescence Polarization (FP) competitive binding assay, Cyclin E1/Cdk2; details: 10 nM Cyclin E1/Cdk2, 2 nM FAM probe; average of 2-3 independent experiments; read-out: Cyclin E FP IC50;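 also: readings taken after two-hour equilibration at room temperature in HEPES buffer with NaCl, DTT, NP-40 and BSA, IC50 fitted from eight-concentration serial dilution series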
T3 construct: purchased Eurofins, discovery 14-475

[4] = system: NCI-H1048 cells; experiment: MTT proliferation assay, NCI-H1048; type: cell-based; details: 5 days compound exposure, 1:3 serial dilution starting at 10 μM;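 also: Dose-response in 96-well plates over 8 or 10 concentration points, with exposure spanning 3-4 cell doublings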
[5] = system: OVCAR3 cells; experiment: MTT proliferation assay, OVCAR3; type: cell-based; details: 5 days compound exposure, 1:3 serial dilution starting at 10 μM;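 also: compound given as an 8- or 10-point series, one day after plating, with exposure covering roughly 3-4 cell doublings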

Compound	IC50 [1] [nM]	IC50 [2] [nM]	IC50 [3] [nM]	GI50 [4] [nM]	GI50 [5] [nM]
Cc1cc(-c2ccc(Cl)cc2C[C@H]2C(=O)NCCCCCCC[C@H](N(C)C(=O)[C@@H](NC(=O)[C@@H]3C[C@@H](F)CN3C(=O)C3(C(F)(F)F)CC(F)(F)C3)C3CC3)C(=O)N[C@@H](CC(C)C)C(=O)N2C)cnn1 [Example 295] ({cBuCO(3,3-F2-1-CF3)}-[Pro(trans-4-F)][Gly(cPr)][NMe(hhhLys)]L[X118]; lactam 3-C)	70	20	3690	80	160
Cc1cc(-c2ccc(Cl)cc2C[C@H]2C(=O)N(C)CCCCCCC[C@H](N(C)C(=O)[C@@H](NC(=O)[C@@H]3C[C@@H](F)CN3C(=O)C3(C(F)(F)F)CC(F)(F)C3)C3CC3)C(=O)N[C@@H](CC(C)C)C(=O)N2C)cnn1 [Example 296] ({cBuCO(3,3-F2-1-CF3)}-[Pro(trans-4-F)][Gly(cPr)][NMehhhLys(Me)]L[X118]; lactam 3-C)	70	20	2810	70	100
CC(C)C[C@@H]1NC(=O)[C@@H](N(C)C(=O)[C@@H](NC(=O)[C@@H]2C[C@@H](F)CN2C(=O)C2(C(F)(F)F)CC(F)(F)C2)C2CC2)C/C=C\CCCCN(C)C(=O)[C@H](Cc2cc(Cl)ccc2-c2cnn(S(C)(=O)=O)c2)N(C)C1=O [Example 298]	50	20	440	10	20
CC(C)C[C@@H]1NC(=O)[C@@H](N(C)C(=O)[C@@H](NC(=O)[C@@H]2C[C@@H](F)CN2C(=O)C2(C(F)(F)F)CC(F)(F)C2)C2CC2)CCCCCCCNC(=O)[C@H](Cc2cc(Cl)ccc2-c2cnn(S(=O)(=O)C3CC3)c2)N(C)C1=O [Example 300] ({cBuCO(3,3-F2-1-CF3)}-[Pro(trans-4-F)][Gly(cPr)][NMe(hhhLys)]L[X42]; lactam 3-C)	30	20	680	30	40
CC(C)C[C@@H]1NC(=O)[C@@H](N(C)C(=O)[C@@H](NC(=O)[C@@H]2C[C@@H](F)CN2C(=O)C(C)(C)C(F)(F)F)C2CC2)CCCCCCCN(C)C(=O)[C@H](Cc2cc(Cl)ccc2-c2cnn(S(C)(=O)=O)c2)N(C)C1=O [Example 301] ({Pivaloyl(3,3,3-F3)}-[Pro(trans-4-F)][Gly(cPr)][NMehhhLys(Me)]L[X82]; lactam 3-C)	40	20	320	20	20
CC(=O)N1CC=C(c2ncc(Cl)cc2C[C@H]2C(=O)NCCCCCCC[C@H](N(C)C(=O)[C@@H](NC(=O)[C@@H]3C[C@@H](F)CN3C(=O)C3(C(F)(F)F)CC(F)(F)C3)C3CC3)C(=O)N[C@@H](CC(C)C)C(=O)N2C)CC1 [Example 302] ({cBuCO(3,3-F2-1-CF3)}-[Pro(trans-4-F)][Gly(cPr)][NMe(hhhLys)]L[X171]; lactam 3-C)	50	20	3560	140	120
CC(C)C[C@@H]1NC(=O)[C@@H](N(C)C(=O)[C@@H](NC(=O)[C@@H]2C[C@@H](F)CN2C(=O)[C@@]2(C(F)(F)F)CCCCO2)C2CC2)CCCCCCCN(C)C(=O)[C@H](Cc2cc(F)ccc2-c2cnn(S(C)(=O)=O)c2)N(C)C1=O [Example 303] ({Oxane2carbonyl(2R-CF3)}-[Pro(trans-4-F)][Gly(cPr)][NMehhhLys(Me)]L[X137]; lactam 3-C)	30	20	100	10	10
CC(C)C[C@@H]1NC(=O)[C@@H](N(C)C(=O)[C@@H](NC(=O)[C@@H]2C[C@@H](F)CN2C(=O)C(C)(C)C(F)(F)F)C2CC2)CCCCCCCN(C)C(=O)[C@H](Cc2cc(F)ccc2-c2cnn(S(C)(=O)=O)c2)N(C)C1=O [Example 304] ({Pivaloyl(3,3,3-F3)}-[Pro(trans-4-F)][Gly(cPr)][NMehhhLys(Me)]L[X137]; lactam 3-C)	40	20	190	10	10
CC(C)C[C@@H]1NC(=O)[C@@H](N(C)C(=O)[C@@H](NC(=O)[C@@H]2C[C@@H](F)CN2C(=O)C2(C(F)(F)F)CC(F)(F)C2)C2CC2)CCCCCCCN(C)C(=O)[C@H](Cc2cc(F)ccc2-c2ccn(S(C)(=O)=O)c2)N(C)C1=O [Example 306] ({cBuCO(3,3-F2-1-CF3)}-[Pro(trans-4-F)][Gly(cPr)][NMehhhLys(Me)]L[X130]; lactam 3-C)	20	20	200	10	10
CC(C)C[C@@H]1NC(=O)[C@@H](N(C)C(=O)[C@@H](NC(=O)[C@@H]2C[C@@H](F)CN2C(=O)C2(C(F)(F)F)CC(F)(F)C2)C2CC2)CCCCCCCN(C)C(=O)[C@H](Cc2cc(Cl)ccc2-c2ccn(S(C)(=O)=O)c2)N(C)C1=O [Example 307] ({cBuCO(3,3-F2-1-CF3)}-[Pro(trans-4-F)][Gly(cPr)][NMehhhLys(Me)]L[X120]; lactam 3-C)	20	20	440	10	10
CC(=O)N1CC=C(c2ccc(Cl)cc2C[C@H]2C(=O)N(C)CCCCCCC[C@H](N(C)C(=O)[C@@H](NC(=O)[C@@H]3C[C@@H](F)CN3C(=O)C3(C(F)(F)F)CC(F)(F)C3)C3CC3)C(=O)N[C@@H](CC(C)C)C(=O)N2C)C1 [Example 308] ({cBuCO(3,3-F2-1-CF3)}-[Pro(trans-4-F)][Gly(cPr)][NMehhhLys(Me)]L[X187]; lactam 3-C)	20	20	840	10	10
CC(C)C[C@@H]1NC(=O)[C@@H](N(C)C(=O)[C@@H](NC(=O)[C@@H]2C[C@@H](F)CN2C(=O)C2(C(F)(F)F)CC(F)(F)C2)C2CC2)CCCCCCCN(C)C(=O)[C@H](Cc2cc(Cl)ccc2C2=CCN(S(C)(=O)=O)C2)N(C)C1=O [Example 309] ({cBuCO(3,3-F2-1-CF3)}-[Pro(trans-4-F)][Gly(cPr)][NMehhhLys(Me)]L[X141]; lactam 3-C)	20	20	930	10	10
CC(C)C[C@@H]1NC(=O)[C@@H](N(C)C(=O)[C@@H](NC(=O)[C@@H]2C[C@@H](F)CN2C(=O)C2(C(F)(F)F)CC(F)(F)C2)C2CC2)CCCCCCCN(C)C(=O)[C@H](Cc2cc(F)ccc2-c2cnn3ccncc23)N(C)C1=O [Example 310] ({cBuCO(3,3-F2-1-CF3)}-[Pro(trans-4-F)][Gly(cPr)][NMehhhLys(Me)]L[X196]; lactam 3-C)	80	20	990	10	10
CC(C)C[C@@H]1NC(=O)[C@@H](N(C)C(=O)[C@@H](NC(=O)[C@@H]2C[C@@H](F)CN2C(=O)C2(C(F)(F)F)CC(F)(F)C2)C2CC2)CCCCCCCNC(=O)[C@H](Cc2cc(Cl)ccc2OC2CC2)N(C)C1=O [Example 311] ({cBuCO(3,3-F2-1-CF3)}-[Pro(trans-4-F)][Gly(cPr)][NMe(hhhLys)]L[X152]; lactam 3-C)	50	20	200	20	30
CC(C)C[C@@H]1NC(=O)[C@@H](N(C)C(=O)[C@@H](NC(=O)[C@@H]2C[C@@H](F)CN2C(=O)C2(C(F)(F)F)CC(F)(F)C2)C2CC2)CCCCCCCNC(=O)[C@H](Cc2cc(Cl)ccc2C2=C[C@@H]3CC[C@H](C2)N3C(=O)C(C)C)N(C)C1=O [Example 312] ({cBuCO(3,3-F2-1-CF3)}-[Pro(trans-4-F)][Gly(cPr)][NMe(hhhLys)]L[X146]; lactam 3-C)	20	20	740	20	30
CC(C)C[C@@H]1NC(=O)[C@@H](N(C)C(=O)[C@@H](NC(=O)[C@@H]2C[C@@H](F)CN2C(=O)C2(C(F)(F)F)CC(F)(F)C2)C2CC2)CCCCCCCN(C)C(=O)[C@H](Cc2cc(Cl)ccc2OC2CC2)N(C)C1=O [Example 314] ({cBuCO(3,3-F2-1-CF3)}-[Pro(trans-4-F)][Gly(cPr)][NMehhhLys(Me)]L[X152]; lactam 3-C)	30	20	140	10	10
CC(C)C[C@@H]1NC(=O)[C@@H](N(C)C(=O)[C@@H](NC(=O)[C@@H]2C[C@@H](F)CN2C(=O)C2(C(F)(F)F)CC(F)(F)C2)C2CC2)CCCCCCCNC(=O)[C@H](Cc2cc(F)ccc2C2=C[C@@H]3CC[C@H](C2)N3C(=O)C(C)C)N(C)C1=O [Example 315] ({cBuCO(3,3-F2-1-CF3)}-[Pro(trans-4-F)][Gly(cPr)][NMe(hhhLys)]L[X124]; lactam 3-C)	30	20	420	20	20
CC(C)C[C@@H]1NC(=O)[C@@H](N(C)C(=O)[C@@H](NC(=O)[C@@H]2C[C@@H](F)CN2C(=O)C2(C(F)(F)F)CC(F)(F)C2)C2CC2)CCCCCCCNC(=O)[C@H](Cc2cc(F)ccc2C2=C[C@H]3CC[C@@H](C2)N3C(=O)C(C)C)N(C)C1=O [Example 316] ({cBuCO(3,3-F2-1-CF3)}-[Pro(trans-4-F)][Gly(cPr)][NMe(hhhLys)]L[X7]; lactam 3-C)	20	20	290	10	10
